According to the supplement of paper PMC11061612:

Assays:
[1] = system: L-363 (Plasma Cell Myeloma); assay: combination Emax (second highest fraction inhibited in the dose matrix, 72 h); higher = more inhibition; extreme values may be limits of the assay
Outline: (§1)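 Cell lines in DMEM/F12 or RPMI with 10% FBS were plated in 1536-well plates, held 24 hours at 37°C, 5% CO2, then given two-drug dose matrices for 72 hours (DMSO typically 0.2%). Viability was read by CellTiter-Glo 2.0 luminescence and scaled as inhibition from 0 (vehicle wells) to 1 (blank wells). Combination Emax is the second-highest inhibition in the matrix; Bliss excess is observed combination effect minus expected EA + EB − EA·EB, EA and EB being single-agent effects.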

[2] = system: HT-1197 (Bladder Carcinoma); assay: as above
Outline: as §1

[3] = system: KNS-62 (Squamous Cell Lung Carcinoma); assay: as above
Outline: as §1

[4] = system: HT-3 (Cervical Carcinoma); assay: as above
Outline: as §1

[5] = system: MRK-nu-1 (Breast Carcinoma); assay: as above
Outline: as §1

[6] = system: NCI-H2170 (Squamous Cell Lung Carcinoma); assay: as above
Outline: as §1

[7] = system: MDA-MB-175-VII (Breast Carcinoma); assay: as above
Outline: as §1

[8] = system: NCI-H1435 (Non-Small Cell Lung Carcinoma); assay: as above
Outline: as §1

[9] = system: GRANTA-519 (B-Cell Non-Hodgkin's Lymphoma); assay: as above
Outline: as §1

[10] = system: SUP-HD1 (Hodgkin's Lymphoma); assay: as above
Outline: as §1

GCIY (Gastric Carcinoma) = assay: as above
Outline: as §1

[11] = system: IGROV-1 (Ovarian Carcinoma); assay: as above
Outline: as §1

NCI-H2452 (Mesothelioma) = assay: Bliss excess, mean over the matrix (fraction); higher = more synergy
Outline: as §1

[12] = system: OCI-M1 (Acute Myeloid Leukemia); assay: as above
Outline: as §1

[13] = system: ATN-1 (T-Lymphoblastic Leukemia); assay: as above
Outline: as §1

HT-144 (Melanoma) = assay: as above
Outline: as §1

[14] = system: NTERA-2-cl-D1 (Other Solid Carcinomas); assay: as above
Outline: as §1

[15] = system: NCI-H2023 (Non-Small Cell Lung Carcinoma); assay: as above
Outline: as §1

[16] = system: MDA-MB-175-VII (Breast Carcinoma); assay: as above
Outline: as §1

MG-63 (Osteosarcoma) = assay: as above
Outline: as §1
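Wherever Bliss excess, mean over the matrix is given: after 72 h of two-drug dosing.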

| Compound | combination Emax [1] | combination Emax [2] | combination Emax [3] | combination Emax [4] | combination Emax [5] | combination Emax [6] | combination Emax [7] | combination Emax [8] | combination Emax [9] | combination Emax [10] | combination Emax (GCIY (Gastric Carcinoma)) | combination Emax [11] | Bliss excess (NCI-H2452 (Mesothelioma)) | Bliss excess [12] | Bliss excess [13] | Bliss excess (HT-144 (Melanoma)) | Bliss excess [14] | Bliss excess [15] | Bliss excess [16] | Bliss excess (MG-63 (Osteosarcoma)) |
| --- | --- | --- | --- | --- | --- | --- | --- | --- | --- | --- | --- | --- | --- | --- | --- | --- | --- | --- | --- | --- |
| CN(C)CCCOc1ccc(-c2ccc3ncc4c(c3c2)n(C2CCOCC2)c(=O)n4C)cn1 [AZD0156] + O=C(c1cc(Cc2n[nH]c(=O)c3ccccc23)ccc1F)N1CCN(C(=O)C2CC2)CC1 [Olaparib] (first compound max 3 µM, partner max 3 µM) | 0.356 | 0.121 | 0.367 | 0.321 | 0.542 | 0.437 | 0.198 | 0.161 | 0.151 | 0.166 | 0.418 | 0.574 | 0.12 | 0.17 | 0.011 | 0.0767 | 0.0068 | 0.0234 | -0.0365 | 0.0183 |
| COc1nnc2ccc(N3CCC(c4ccc(OCCN5CCN(C)C(=O)[C@H]5C)cc4)CC3)nn12 [AZD5153] + Cc1c2c(nn1C)CSCc1cc(n(C)n1)CSc1cc(c3ccccc3c1)OCCCc1c(C(=O)O)n(C)c3c-2c(Cl)ccc13 [AZD5991] (first compound max 1 µM, 7x7, partner max 1 µM) | 0.994 | 0.966 | 0.503 | 0.911 | 1 | 0.636 | 0.553 | 0.296 | 0.314 | 0.946 | 0.538 | 0.889 | -0.0265 | -0.018 | -0.0304 | -0.0094 | 0.0698 | -0.0217 | -0.0015 | -0.0302 |
| COc1cccc2c1C(=O)c1c(O)c3c(c(O)c1C2=O)C[C@@](O)(C(=O)CO)C[C@@H]3O[C@H]1C[C@H](N)[C@H](O)[C@H](C)O1 [Doxorubicin] + Cc1cc2ncnn2cc1Nc1ncc2c(n1)n(C1CCOCC1)c(=O)n2C [AZD7648] (first compound max 1 µM, 7x7, partner max 10 µM) | 0.925 | 0.735 | 0.484 | 0.781 | 0.695 | 0.891 | 0.512 | 0.198 | 0.856 | 0.878 | 0.663 | 0.611 | 0.0928 | 0.102 | 0.0967 | 0.0302 | 0.0426 | 0.0476 | -0.0228 | 0.0908 |
| C[C@@H]1COCCN1c1cc(C2([S@](C)(=N)=O)CC2)nc(-c2ccnc3[nH]ccc23)n1 [AZD6738] + O=C(c1cc(Cc2n[nH]c(=O)c3ccccc23)ccc1F)N1CCN(C(=O)C2CC2)CC1 [Olaparib] (first compound max 10 µM, 7x7, partner max 10 µM) | 0.854 | 0.393 | 0.413 | 0.697 | 0.621 | 0.71 | 0.352 | 0.212 | 0.754 | 0.725 | 0.811 | 0.704 | -0.0415 | -0.017 | 0.0169 | 0.0461 | 0.0898 | 0.0867 | 0.0522 | 0.047 |
| CCN(CCO)CCCOc1ccc2c(Nc3cc(CC(=O)Nc4cccc(F)c4)[nH]n3)ncnc2c1 [AZD2811] + C[C@@H]1COCCN1C2=NC(=NC(=C2)C3(CC3)[S@](=N)(=O)C)C4=C5C=CNC5=NC=C4 [AZD6738] (first compound max 1 µM, 7x7, partner max 10 µM) | 0.807 | 0.424 | 0.417 | 0.694 | 0.732 | 0.803 | 0.384 | 0.17 | 0.782 | 0.781 | 0.851 | 0.646 | -0.0756 | 0.0009 | -0.0839 | -0.0711 | -0.065 | -0.0555 | -0.0307 | 0.011 |
| Cc1c2c(nn1C)CSCc1cc(n(C)n1)CSc1cc(c3ccccc3c1)OCCCc1c(C(=O)O)n(C)c3c-2c(Cl)ccc13 [AZD5991] + C[C@@H]1COCCN1C2=NC(=NC(=C2)C3(CC3)[S@](=N)(=O)C)C4=C5C=CNC5=NC=C4 [AZD6738] (first compound max 1 µM, 7x7, partner max 10 µM) | 1 | 0.466 | 0.491 | 0.907 | 1 | 0.683 | 0.259 | 0.217 | 0.906 | 0.891 | 0.808 | 0.852 | 0.0425 | 0.0061 | 0.0085 | 0.0039 | 0.0936 | -0.0078 | 0.0187 | 0.0127 |
| CN(CCO)CC[C@H](CSc1ccccc1)Nc1ccc(S(=O)(=O)NC(=O)c2ccc(N3CCC([C@@H](O)c4ccccc4-c4ccc(Cl)cc4)CC3)cc2)cc1S(=O)(=O)C(F)(F)F [AZD4320] + C1CN(CCC1(C(=O)N[C@@H](CCO)C2=CC=C(C=C2)Cl)N)C3=NC=NC4=C3C=CN4 [Capivasertib] (first compound max 1 µM, 7x7, partner max 3 µM) | 0.376 | 0.321 | 0.232 | 0.0692 | 0.3 | 0.772 | 0.799 | 0.876 | 0.812 | 0.959 | 0.576 | 0.767 | -0.0757 | -0.0161 | -0.0802 | -0.0412 | 0.0075 | -0.103 | 0.0425 | -0.0785 |
